Laboratory results from US9695155B2, “Herbicidal substituted pyrimidinyloxy benzene compounds” (E. I. DU PONT DE NEMOURS AND COMPANY, priority 2013, dated 2017).

Assays:
[1] = tested on: giant foxtail; experiment: Test A preemergence; format: in vivo, Setaria faberii; settings: 0 to 100 scale where 0 is no effect and 100 is complete control
Summary of the method: (§1)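 Injury scores run from 0, no effect, to 100, complete control, judged by eye against untreated plants roughly 10 days after treatment. Chemicals carried a surfactant in a non-phytotoxic solvent and went onto loam–sand soil preemergence or onto one- to two-leaf seedlings postemergence.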

[2] = tested on: sedge, umbrella; experiment: Test B flooded paddy test; format: in vivo, Cyperus difformis; settings: Flood, 250 g ai/ha, 0 to 100 scale where 0 is no effect and 100 is complete control
Summary of the method: (§2)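 Flooded to 3 cm at the 2-leaf stage, pots received compound through the paddy water and were kept at that depth under greenhouse conditions. After 13–15 days, effect was rated by eye relative to controls, 0 = none and 100 = complete control.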

[3] = tested on: giant foxtail; experiment: Test A postemergence; format: in vivo, Setaria faberii
Summary of the method: as §1

[4] = tested on: chickweed; experiment: Test C postemergence; format: in vivo, Stellaria media
Summary of the method: (§3)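 Whole-plant greenhouse test with surfactant-containing solvent formulation, applied preemergence to sown loam–sand pots or postemergence to 2–18 cm plants. Scored by eye 13 to 15 days on, 0–100 scale.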

[5] = tested on: barnyardgrass; experiment: Test B flooded paddy test; format: in vivo, Echinochloa crus-galli; settings: Flood, 250 g ai/ha, 0 to 100 scale where 0 is no effect and 100 is complete control
Summary of the method: as §2

[6] = tested on: pigweed; experiment: Test A postemergence; format: in vivo, Amaranthus retroflexus
Summary of the method: as §1

[7] = tested on: oilseed rape; experiment: Test C postemergence; format: in vivo, Brassica napus; settings: for Oilseed Rape plant response rating: 31 g ai/ha, 13 to 15 days
Summary of the method: as §3

[8] = tested on: waterhemp; experiment: Test C postemergence; format: in vivo, Amaranthus rudis; settings: for Waterhemp plant response rating: 31 g ai/ha, 13 to 15 days
Summary of the method: as §3

[9] = tested on: rice; experiment: Test B flooded paddy test; format: in vivo, Oryza sativa; settings: Flood, 250 g ai/ha, 0 to 100 scale where 0 is no effect and 100 is complete control
Summary of the method: as §2

[10] = tested on: soybean; experiment: Test C postemergence; format: in vivo, Glycine max; settings: for Soybean plant response rating: 31 g ai/ha, 13 to 15 days
Summary of the method: as §3

[11] = tested on: lambsquarters; experiment: Test C postemergence; format: in vivo, Chenopodium album; settings: for Lambsquarters plant response rating: 31 g ai/ha, 13 to 15 days
Summary of the method: as §3

[12] = tested on: Italian ryegrass; experiment: Test C postemergence; format: in vivo, Lolium multiflorum; settings: for Ryegrass, Italian plant response rating: 31 g ai/ha, 13 to 15 days
Summary of the method: as §3

[13] = tested on: galium; experiment: Test C postemergence; format: in vivo, Galium aparine
Summary of the method: as §3

[14] = postemergence, visual rating, scale 0 to 100 (0 no effect, 100 complete control)
[15] = 31 g ai/ha, 0 to 100 scale, 0 no effect, 100 complete control
[16] = 125 g ai/ha, 0 to 100 scale where 0 is no effect and 100 is complete control
[17] = 8 g ai/ha, postemergence, 0 is no effect, 100 is complete control
[18] = 16 g ai/ha, postemergence, 0 is no effect, 100 is complete control
[19] = 31 g ai/ha, postemergence, visual rating, scale 0 to 100 (0 no effect, 100 complete control), 13 to 15 days

FC(F)c1cn(-c2ccccc2Oc2ncc(Cl)cn2)nn1 [Compound 147, 5-chloro-2-[2-[4-(difluoromethyl)-1H-1,2,3-triazol-1-yl]phenoxy]pyrimidine]
pest or weed control at 125 g/ha ([1]; Setaria faberi, pre-emergence, 240 h, 125 g ai/ha, read-out: Plant response rating, Foxtail, Giant): 100%
pest or weed control at 500 g/ha ([1]; Setaria faberi, pre-emergence, 240 h, 500 g ai/ha, read-out: Foxtail, Giant plant response rating): 100%
pest or weed control at 250 g/ha ([2]; Cyperus difformis, read-out: Plant response rating, Sedge, Umbrella): 75%
pest or weed control at 125 g/ha ([3]; Setaria faberi, post-emergence, 240 h, 125 g ai/ha, 0 to 100 scale where 0 is no effect and 100 is complete control, read-out: Foxtail, Giant plant response rating): 90%
pest or weed control at 500 g/ha ([3]; Setaria faberi, post-emergence, 240 h, 500 g ai/ha, 0 to 100 scale where 0 is no effect and 100 is complete control, read-out: Plant response rating, Foxtail, Giant): 90%
pest or weed control at 16 g/ha ([4]; Stellaria media, post-emergence, 16 g ai/ha, postemergence, 0 is no effect, 100 is complete control, read-out: Plant response rating (0 to 100), Chickweed): 15%
pest or weed control at 31 g/ha ([4]; Stellaria media, post-emergence, 31 g ai/ha, postemergence, visual rating, scale 0 to 100 (0 no effect, 100 complete control), 13 to 15 days, read-out: Chickweed plant response rating): 70%
pest or weed control at 125 g/ha ([4]; Stellaria media, post-emergence, 125 g ai/ha, postemergence, visual rating, scale 0 to 100 (0 no effect, 100 complete control), read-out: Plant response rating, Chickweed): 90%
pest or weed control at 62 g/ha ([4]; Stellaria media, post-emergence, Postemergence, 62 g ai/ha, scale 0 to 100 (0 no effect, 100 complete control), read-out: Plant response rating, Chickweed): 75%
pest or weed control at 250 g/ha ([5]; Echinochloa crus-galli, read-out: Plant response rating, Barnyardgrass): 35%
pest or weed control at 500 g/ha ([6]; Amaranthus retroflexus, post-emergence, 500 g ai/ha, 0 to 100 scale where 0 is no effect and 100 is complete control, read-out: Plant response rating, Pigweed): 100%
pest or weed control at 125 g/ha ([6]; Amaranthus retroflexus, post-emergence, 240 h, 125 g ai/ha, 0 to 100 scale where 0 is no effect and 100 is complete control, read-out: Pigweed plant response rating): 100%
Oilseed Rape plant response rating [7, 14]: 40
plant injury at 16 g/ha ([7]; Brassica napus, post-emergence, 16 g ai/ha, postemergence, 0 is no effect, 100 is complete control, read-out: Plant response rating (0 to 100), Oilseed Rape): 25%
plant injury at 125 g/ha ([7]; Brassica napus, post-emergence, 125 g ai/ha, postemergence, visual rating, scale 0 to 100 (0 no effect, 100 complete control), read-out: Plant response rating, Oilseed Rape): 95%
plant injury at 62 g/ha ([7]; Brassica napus, post-emergence, Postemergence, 62 g ai/ha, scale 0 to 100 (0 no effect, 100 complete control), read-out: Plant response rating, Oilseed Rape): 75%
Waterhemp plant response rating [8, 14]: 55
pest or weed control at 16 g/ha ([8]; Amaranthus tuberculatus, post-emergence, 16 g ai/ha, postemergence, 0 is no effect, 100 is complete control, read-out: Plant response rating (0 to 100), Waterhemp): 40%
pest or weed control at 125 g/ha ([8]; Amaranthus tuberculatus, post-emergence, 125 g ai/ha, postemergence, visual rating, scale 0 to 100 (0 no effect, 100 complete control), read-out: Plant response rating, Waterhemp): 70%
pest or weed control at 62 g/ha ([8]; Amaranthus tuberculatus, post-emergence, Postemergence, 62 g ai/ha, scale 0 to 100 (0 no effect, 100 complete control), read-out: Plant response rating, Waterhemp): 85%
plant injury at 250 g/ha ([9]; Oryza sativa, read-out: Plant response rating, Rice): 35%
Soybean plant response rating [10, 14]: 65
Soybean plant response rating (crop injury, 0-100 scale) at 16 g/ha ([10]; Glycine max, post-emergence, 16 g ai/ha, postemergence, 0 is no effect, 100 is complete control): 65%
Soybean plant response rating (crop injury, 0-100 scale) at 125 g/ha ([10]; Glycine max, post-emergence, 125 g ai/ha, postemergence, visual rating, scale 0 to 100 (0 no effect, 100 complete control), read-out: Plant response rating, Soybean): 90%
Soybean plant response rating (crop injury, 0-100 scale) at 62 g/ha ([10]; Glycine max, post-emergence, Postemergence, 62 g ai/ha, scale 0 to 100 (0 no effect, 100 complete control)): 85%
Lambsquarters plant response rating [11, 14]: 75
pest or weed control at 16 g/ha ([11]; Chenopodium album, post-emergence, 16 g ai/ha, postemergence, 0 is no effect, 100 is complete control, read-out: Plant response rating (0 to 100), Lambsquarters): 60%
pest or weed control at 125 g/ha ([11]; Chenopodium album, post-emergence, 125 g ai/ha, postemergence, visual rating, scale 0 to 100 (0 no effect, 100 complete control), read-out: Plant response rating, Lambsquarters): 98%
pest or weed control at 62 g/ha ([11]; Chenopodium album, post-emergence, Postemergence, 62 g ai/ha, scale 0 to 100 (0 no effect, 100 complete control), read-out: Plant response rating, Lambsquarters): 90%
Ryegrass, Italian plant response rating [12, 14]: 0
pest or weed control at 16 g/ha ([12]; Lolium multiflorum, post-emergence, 16 g ai/ha, postemergence, 0 is no effect, 100 is complete control, read-out: Plant response rating (0 to 100), Ryegrass, Italian): 0%
pest or weed control at 125 g/ha ([12]; Lolium multiflorum, post-emergence, 125 g ai/ha, postemergence, visual rating, scale 0 to 100 (0 no effect, 100 complete control), read-out: Plant response rating, Ryegrass, Italian): 5%
pest or weed control at 62 g/ha ([12]; Lolium multiflorum, post-emergence, Postemergence, 62 g ai/ha, scale 0 to 100 (0 no effect, 100 complete control), read-out: Plant response rating, Ryegrass, Italian): 0%
pest or weed control at 16 g/ha ([13]; Galium, post-emergence, 16 g ai/ha, postemergence, 0 is no effect, 100 is complete control, read-out: Plant response rating (0 to 100), Galium): 85%
pest or weed control at 31 g/ha ([13]; Galium, post-emergence, 31 g ai/ha, postemergence, visual rating, scale 0 to 100 (0 no effect, 100 complete control), 13 to 15 days, read-out: Galium plant response rating): 90%
pest or weed control at 125 g/ha ([13]; Galium, post-emergence, 125 g ai/ha, postemergence, visual rating, scale 0 to 100 (0 no effect, 100 complete control), read-out: Plant response rating, Galium): 90%
pest or weed control at 62 g/ha ([13]; Galium, post-emergence, Postemergence, 62 g ai/ha, scale 0 to 100 (0 no effect, 100 complete control), read-out: Plant response rating, Galium): 90%

FCc1cccc(Oc2ncc(F)cn2)c1-n1cc(I)cn1 [Compound 152]
Plant response rating, Foxtail, Giant ([1]; 31 g ai/ha, visual, approximately 10 days): 10
Plant response rating, Foxtail, Giant ([1]; 125 g ai/ha): 100
Plant response rating, Sedge, Umbrella [2]: 50
Plant response rating, Foxtail, Giant [3, 15]: 0
Foxtail, Giant plant response rating [3, 16]: 40
Plant response rating (0 to 100), Chickweed ([4]; 4 g ai/ha, postemergence, 0 is no effect, 100 is complete control): 5
Plant response rating (0 to 100), Chickweed [4, 17]: 5
Plant response rating (0 to 100), Chickweed [4, 18]: 10
Chickweed plant response rating [4, 19]: 30
Plant response rating, Barnyardgrass [5]: 0
Plant response rating, Pigweed [6, 15]: 0
Pigweed plant response rating [6, 16]: 90
Plant response rating (0 to 100), Oilseed Rape [7, 17]: 5
Plant response rating (0 to 100), Oilseed Rape [7, 18]: 35
Oilseed Rape plant response rating [7, 14]: 60
Plant response rating (0 to 100), Waterhemp [8, 17]: 15
Plant response rating (0 to 100), Waterhemp [8, 18]: 45
Waterhemp plant response rating [8, 14]: 60
Plant response rating, Rice [9]: 0
Plant response rating (0 to 100), Soybean [10, 17]: 30
Plant response rating (0 to 100), Soybean [10, 18]: 35
Soybean plant response rating [10, 14]: 60
Plant response rating (0 to 100), Lambsquarters [11, 17]: 60
Plant response rating (0 to 100), Lambsquarters [11, 18]: 40
Lambsquarters plant response rating [11, 14]: 80
Plant response rating (0 to 100), Ryegrass, Italian [12, 17]: 0
Plant response rating (0 to 100), Ryegrass, Italian [12, 18]: 0
Ryegrass, Italian plant response rating [12, 14]: 0
Plant response rating (0 to 100), Galium [13, 17]: 15
Plant response rating (0 to 100), Galium [13, 18]: 35
Galium plant response rating [13, 19]: 55
